Reference: patent US20190270796A1, “THERAPEUTIC AGENT FOR PERIODONTITIS AND COMPOSTION FOR TREATING PERIODONTITIS” (NIHON UNIVERSITY, priority 2016, published 2019)

Experiments:
[1] = test system: gingival fibroblasts extremely decomposing collagen gel (PAF1, PAF2); assay: weight of collagen gel after three-dimensional culture (Experimental Example 3); assay type: cell-based, human; settings: HGF 50 ng/mL, HGF-neutralizing antibody 20 μg/mL; for weight of collagen gel: day 5 of suspension culture
Description: Cell matrix type I-A (Nitta Gelatin Inc.), 5×DMEM, a buffer solution for reconstitution (Nitta gelatin) were mixed with each other to prepare a collagen mixed solution. An HGF-neutralizing antibody (model “AB-294-NA”, R&D) was added to this collagen mixed solution so that the final concentration became 20 μg/mL. In addition, a sample containing no test substance (control) and a sample to which HGF (model “100-39”, PeproTech, Inc.) was added so that the final concentrations became 50 ng/mL were prepared for comparison.
Subsequently, the same gingival fibroblasts, which extremely decompose collagen gel, as in Experimental Example 1 were mixed with these collagen mixed solutions and seeded in a 6-well plate so that the cell density became 2.5×10^5 cells/well. Subsequently, the mixture was incubated at 37° C. for 30 minutes and the collagen gel was hardened. Two kinds of cells (hereinafter, referred to as “PAF1” and “PAF2”) were used as gingival fibroblasts extremely decomposing collagen gel.
Subsequently, the same gingival epithelial cells as in Experimental Example 1 were dispersed by trypsin treatment, and were then seeded on the above-described collagen gel at 2×10^5 cells/well to form a single layer of the epithelial cells.
Subsequently, each prepared collagen gel was incubated at 37° C. After 24 hours, each collagen gel piece was peeled off from a plate and was suspended (on day 1 of culture). HGF-neutralizing antibodies having the same concentration as that described above were added to a medium of a test group. Subsequently, suspension culture of collagen gel was continued at 37° C.
Collagen gel was collected on day 5 after the start of the suspension culture, and the weight thereof was measured. FIGS. 5(a) and 5(b) are photographs of collected collagen gel. […] In FIGS. 5(a) and 5(b), the “control” indicates control collagen gel, “HGF” indicates collagen gel to which HGF is added, and the “HGF-neutralizing antibody” indicates collagen gel to which an HGF-neutralizing antibody is added.

[2] = test system: normal gingival fibroblasts; assay: three-dimensional collagen gel culture system with normal gingival fibroblasts (Experimental Example 1); assay type: cell-based, human; settings: day 5 of suspension culture, HGF 25 and 50 ng/mL, HGF-neutralizing antibody 20 μg/mL
Text: In addition, gingival fibroblasts with a low resolution of collagen gel (hereinafter, sometimes referred to as “normal gingival fibroblasts”) were used as controls. Gingival fibroblasts with which the contraction of collagen gel having a diameter of 35 mm remained to a diameter of about 10 mm were used as normal gingival fibroblasts.
In addition, the same collagen gel as the above-described collagen gel was produced for comparison except that the above-described normal gingival fibroblasts were used instead of the gingival fibroblasts which extremely decompose collagen gel.
Subsequently, each prepared collagen gel piece was incubated at 37° C. After 24 hours, each collagen gel piece was peeled off from a plate and was suspended (on day 1 of culture). Each test substance (HGF-neutralizing antibody and HGF) having the same concentration as that described above was added to a medium. Subsequently, suspension culture of collagen gel was continued at 37° C., and collagen gel was observed on day 5 after the start of the suspension culture.
FIGS. 2(a) to 2(h) are photographs of each collagen gel piece on day 5 after the start of the suspension culture. Each mass floating in each well in FIGS. 2(a) to 2(h) is collagen gel. FIGS. 2(a) to 2(d) show results of collagen gel containing gingival fibroblasts which extremely decompose collagen gel. […]

[3] = test system: gingival fibroblasts which extremely decompose collagen gel, derived from a patient with periodontitis; assay: three-dimensional collagen gel culture system, collagen degradation (Experimental Example 1); assay type: cell-based, human; settings: day 5 of suspension culture; compared to control; HGF 50 ng/mL; HGF-neutralizing antibody 20 μg/mL
Description: First, a three-dimensional collagen gel culture system of gingival fibroblasts previously developed by the present inventors will be described with reference to FIGS. 1(a) to 1(d). In this culture system, it is possible to evaluate the influence of a test substance on degradation of collagen in periodontal tissues in vitro and to obtain results close to in vivo.
First, as shown in FIG. 1(a), gingival fibroblasts derived from a patient with periodontitis and a test substance are added into collagen gel, and the mixture is poured into a petri dish. Subsequently, the mixture is incubated at 37° C. for 30 minutes and the collagen gel is hardened. Subsequently, gingival epithelial cells derived from the patient with periodontitis are seeded on the hardened collagen gel and incubated overnight.
Subsequently, as shown in FIG. 1(b), the collagen gel is peeled off from the petri dish to make the collagen gel float. At this time, the test substance is also added into a medium in which the collagen gel floats. Subsequently, the suspension culture is continued for 5 days. Meanwhile, the collagen gel is degraded and contracts due to various factors produced by an interaction between the gingival fibroblasts and the gingival epithelial cells. […]
Subsequently, as shown in FIG. 1(c), the amount of residual collagen is quantitatively determined on day 5 of suspension culture. […]

[4] = test system: monkey gingival fibroblasts which extremely decompose collagen gel; assay: three-dimensional collagen gel culture system with monkey gingival fibroblasts (Experimental Example 4); assay type: cell-based, Macaca fascicularis; settings: HGF 50 ng/mL, HGF-neutralizing antibody 20 μg/mL
Text: Before clinical application of the therapeutic agent for periodontitis of the present invention to humans, it is necessary to conduct experiments using monkeys. An effect of an HGF-neutralizing antibody on degradation of collagen using gingival fibroblasts derived from a monkey naturally occurred periodontitis was examined using the same three-dimensional collagen gel culture system as in Experimental Example 1. Since it is difficult to culture gingival epithelial cells of monkeys, human gingival epithelial cells were used as gingival epithelial cells. Tissue of a gingiva piece derived from an euthanasia individual of a monkey (Macaca fascicularis, raised in Tsukuba Primate Research Center) naturally occurred periodontitis was cut, and then, the tissue pieces were allowed to stand on the bottom of a cell culture plate. Subsequently, outgrown cells from the tissue pieces were subcultured as a first generation to obtain monkey gingival fibroblasts. The obtained gingival fibroblasts were once cultured in the above-described three-dimensional collagen gel culture system to observe collagen resolution, and gingival fibroblasts which extremely decompose collagen gel (that is, with which collagen gel were degraded and contracted). […]

Substance: HGF: HGF (model “100-39”, PeproTech, Inc.), hepatocyte growth factor added for comparison
- weight of collagen gel ([1]; PAF1, control 0.013 g): 0.011 g
- degradation of collagen gel ([1]; PAF1 and PAF2, compared to control collagen gel): remarkably accelerated
- weight of collagen gel ([1]; PAF2, control 0.034 g): 0.028 g
- difference in decomposition of collagen [2]: no difference
- degradation of collagen (observation of collagen gel) [3]: clearly accelerated
- degradation of collagen (observation of collagen gel) ([4]; monkey gingival fibroblasts with human gingival epithelial cells (SAF1, SAF2), day 5 of suspension culture, compared to controls): promoted
- vacuoles around cells (hematoxylin-eosin staining of thin section of collagen gel) ([4]; monkey gingival fibroblasts, SAF1): a vacuole is formed around the cell
